Experiment [1] deals with A2780 cells. Description: In-vitro cell proliferation assay (SRB), A2780 cells.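 Note: viable cell number read as SRB absorbance, background from media-only wells subtracted, IC50 interpolated from percent inhibition at two bracketing compound concentrations.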 The format is cell-based. The conditions noted are these: A2780 cells, 72 hours, SRB, read-out: A2780 IC50.
Experiment [2] relates to A2780 cells. Description: A2780 xenograft study in mice. The format is in vivo, C.B-17-Igh-1b-Prkdc^scid mice. The settings on record: female SCID mice, s.c. A2780 tumors, p.o. BID for 5 or 10 days, dose selected from MTD study. As for the experimental part:
C.B-17-Igh-1b-Prkdc^scid mice (female) were injected s.c. with 5×10^6 A2780 cells (NCI) in the left flank. 10-12 days later when tumors reached 100-200 mm3 in size, mice were randomized into treatment groups of 8 mice per group including vehicle control and reference standard groups. The compounds were formulated in 60:30:10 PEG-400:D5W: Ethanol and administered p.o., at the dose volume of 10 ml/kg BID for a duration of 5 or 10 days. The dose used for efficacy was selected from the MTD (Maximum Tolerated Dose) study. Mice were weighed and tumors measured using vernier calipers every alternate day. Tumor volume was calculated according to the formula (length×width^2)/2. All animal work was approved by the Institutional Animal Care and Use Committee of Biological Resource Centre, Singapore.

The next experiment deals with NAMPT (Homo sapiens (Human), UniProt P43490). Nature of the experiment: NAMPT biochemical inhibition assay (NMN quantified by mass spectrometry). The conditions noted are these: NAMPT biochemical inhibition; read-out: Biochem IC50.

Like-named read-outs stand apart in the source and are kept apart here.

This note sets out measurements from patent US11279687B2, “Compounds and compositions for the inhibition of NAMPT” (Valo Health, Inc., priority 2010, dated 2022).

As usually defined, the IC50 is the concentration that inhibits the measured activity by half.

Chain of NAMPT (P43490 whole entry): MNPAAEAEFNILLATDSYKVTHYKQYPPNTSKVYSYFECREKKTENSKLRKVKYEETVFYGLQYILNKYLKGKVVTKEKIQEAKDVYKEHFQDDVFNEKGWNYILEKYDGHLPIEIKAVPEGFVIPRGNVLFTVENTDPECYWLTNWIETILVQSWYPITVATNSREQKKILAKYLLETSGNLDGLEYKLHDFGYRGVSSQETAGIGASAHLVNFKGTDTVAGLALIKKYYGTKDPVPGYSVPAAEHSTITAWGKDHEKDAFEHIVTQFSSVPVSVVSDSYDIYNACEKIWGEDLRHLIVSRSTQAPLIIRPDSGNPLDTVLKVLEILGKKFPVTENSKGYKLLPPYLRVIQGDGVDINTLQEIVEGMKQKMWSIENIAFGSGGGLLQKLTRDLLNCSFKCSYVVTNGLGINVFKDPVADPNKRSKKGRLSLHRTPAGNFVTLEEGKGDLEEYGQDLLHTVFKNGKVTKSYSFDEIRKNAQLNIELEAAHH

`O=C(NCc1ccc2nccn2c1)Nc1ccc(S(=O)(=O)c2ccccc2)cc1` [1-[4-(benzenesulfonyl)phenyl]-3-{imidazo[1,2-a]pyridin-6-ylmethyl}urea]: the half-maximal inhibitory concentration (IC50) with A2780 cells [1] (Homo sapiens, A2780, 72 h) is 0.033 µM. The “effect on tumor growth in A2780 xenograft” value (“effect on tumor growth” below) in the experiment with A2780 cells [2] is “delayed tumor growth”. On to `C[C@@H]1CN(S(=O)(=O)c2ccc(NC(=O)NCc3cccnc3)cc2)C[C@H](C)O1` [3-{4-[(2R,6S)-2,6-dimethylmorpholine-4-sulfonyl]phenyl}-1-(pyridin-3-ylmethyl)urea], for which the IC50 in the experiment on A2780 cells [1] (Homo sapiens, A2780, 72 h) was 0.009 µM. Further, the “effect on tumor growth” value in the experiment with A2780 cells [2] was “delayed tumor growth”.

For `O=C(NCc1cccnc1)Nc1ccc(S(=O)(=O)c2ccccc2)cc1` [3-[4-(benzenesulfonyl)phenyl]-1-(pyridin-3-ylmethyl)urea], the “effect on tumor growth” value in the experiment with A2780 cells [2] is on record as “tumor stasis”. With `O=C(NCc1cccnc1)Nc1ccc(S(=O)(=O)NC2CCCCCC2)cc1` [1-[4-(cycloheptylsulfamoyl)phenyl]-3-(pyridin-3-ylmethyl)urea], the IC50 in the experiment on A2780 cells [1] (Homo sapiens, A2780, 72 h) amounted to 0.08 µM; at NAMPT, 0.003 µM.

With `O=C(NCc1cccnc1)Nc1ccc(S(=O)(=O)N2CCC(O)(c3cccc(Cl)c3)CC2)cc1` [3-{4-[4-(3-chlorophenyl)-4-hydroxypiperidine-1-sulfonyl]phenyl}-1-(pyridin-3-ylmethyl)urea], the IC50 in the experiment with A2780 cells [1] (Homo sapiens, A2780, 72 h) came to 0.956 µM; on NAMPT, 0.0052 µM. The corresponding values for `COc1ccc(S(=O)(=O)c2ccc(NC(=O)NCc3cccnc3)cc2)c(F)c1` [3-{4-[(2-fluoro-4-methoxybenzene)sulfonyl]phenyl}-1-(pyridin-3-ylmethyl)urea] are 0.311 µM and 0.003 µM. `O=C(NCc1cccnc1)Nc1ccc(S(=O)(=O)c2cccc(OC(F)(F)F)c2)cc1` [1-(pyridin-3-ylmethyl)-3-(4-{[3-(trifluoromethoxy)benzene]sulfonyl}phenyl)urea]: the 50% inhibitory concentration (IC50) in the experiment on A2780 cells [1] (Homo sapiens, A2780, 72 h) was determined as 0.083 µM; at NAMPT, 0.001 µM. Turning to `NC(=O)c1ccc(CNC(=O)Nc2ccc(S(=O)(=O)N3CCCCC3)cc2)cn1` [5-[({[4-(piperidine-1-sulfonyl)phenyl]carbamoyl}amino)methyl]pyridine-2-carboxamide], the half-maximal inhibitory concentration (IC50) in the experiment on A2780 cells [1] (Homo sapiens, A2780, 72 h) was 27.5 µM; on NAMPT, more than 10 µM. Take `Cc1cc(S(=O)(=O)c2ccc(NC(=O)NCc3cccnc3)cc2)ccc1F` [3-{4-[(4-fluoro-3-methylbenzene)sulfonyl]phenyl}-1-(pyridin-3-ylmethyl)urea]: the IC50 in the experiment on A2780 cells [1] (Homo sapiens, A2780, 72 h) was 0.1 to 1 µM; at NAMPT it was 0.0037 µM.

In the case of `CCCOc1cccc(S(=O)(=O)c2ccc(NC(=O)NCc3cccnc3)cc2)c1` [3-{4-[(3-propoxybenzene)sulfonyl]phenyl}-1-(pyridin-3-ylmethyl)urea], the half-maximal inhibitory concentration (IC50) with A2780 cells [1] (Homo sapiens, A2780, 72 h) was 0.1 to 1 µM; at NAMPT, 0.0038 µM. On to `O=C(NCc1cccnc1)Nc1ccc(S(=O)(=O)Nc2ccccc2OC(F)F)cc1` [3-(4-{[2-(difluoromethoxy)phenyl]sulfamoyl}phenyl)-1-(pyridin-3-ylmethyl)urea], for which the IC50 was 0.031 µM in the experiment with A2780 cells [1] (Homo sapiens, A2780, 72 h) and 0.0006 µM on NAMPT. The corresponding values for `COCC1CCN(S(=O)(=O)c2ccc(NC(=O)NCc3cccnc3)cc2)CC1` [3-{4-[4-(methoxymethyl)piperidine-1-sulfonyl]phenyl}-1-(pyridin-3-ylmethyl)urea] are 0.13 µM and 0.022 µM. Turning to `CCCN(CCC)C1CCN(S(=O)(=O)c2ccc(NC(=O)NCc3cccnc3)cc2)CC1` [3-{4-[4-(dipropylamino)piperidine-1-sulfonyl]phenyl}-1-(pyridin-3-ylmethyl)urea], the concentration for half-maximal inhibition (IC50) in the experiment on A2780 cells [1] (Homo sapiens, A2780, 72 h) is 0.003 µM; at NAMPT it was 0.004 µM. For the molecule `O=C(NCc1cccnc1)Nc1ccc(S(=O)(=O)Nc2ccc(N3CCCCC3)cc2)cc1` [1-(4-{[4-(piperidin-1-yl)phenyl]sulfamoyl}phenyl)-3-(pyridin-3-ylmethyl)urea], the IC50 is 0.054 µM in the experiment on A2780 cells [1] (Homo sapiens, A2780, 72 h) and 0.004 µM on NAMPT. As for `O=C(NCc1cccnc1)Nc1ccc(S(=O)(=O)c2ccc(F)c(C(F)(F)F)c2)cc1` [3-(4-{[4-fluoro-3-(trifluoromethyl)benzene]sulfonyl[phenyl)-1-(pyridin-3-ylmethyl)urea], the results for the IC50 in the experiment with A2780 cells [1] and on NAMPT were 0.0862 µM and 0.0015 µM, respectively. As for `O=C(NCc1cccnc1)Nc1ccc(S(=O)(=O)Nc2ccc(F)cc2Cl)cc1` [3-{4-[(2-chloro-4-fluorophenyl)sulfamoyl]phenyl}-1-(pyridin-3-ylmethyl)urea], the half-maximal inhibitory concentration (IC50) is 0.036 µM with A2780 cells [1] (Homo sapiens, A2780, 72 h) and 0.0009 µM on NAMPT. As to `Cc1ccc(C)c(S(=O)(=O)c2ccc(NC(=O)NCc3cccnc3)cc2)c1` [3-{4-[(2,5-dimethylbenzene)sulfonyl]phenyl}-1-(pyridin-3-ylmethyl)urea], the 50% inhibitory concentration (IC50) in the experiment on A2780 cells [1] (Homo sapiens, A2780, 72 h) was 0.473 µM; on NAMPT, 0.014 µM. `Cc1ccccc1S(=O)(=O)c1ccc(NC(=O)NCc2cccnc2)cc1` [3-{4-[(2-methylbenzene)sulfonyl]phenyl}-1-(pyridin-3-ylmethyl)urea]: the half-inhibitory concentration (IC50) in the experiment with A2780 cells [1] (Homo sapiens, A2780, 72 h) stood at 0.45 µM; at NAMPT, 0.002 µM. With `O=C(NCc1ccc2nccn2c1)c1ccc(S(=O)(=O)N2CC3CCC(C2)O3)cc1` [N-{imidazo[1,2-a]pyridin-6-ylmethyl}-4-{8-oxa-3-azabicyclo[3.2.1]octane-3-sulfonyl}benzamide], the 50% inhibitory concentration (IC50) in the experiment with A2780 cells [1] (Homo sapiens, A2780, 72 h) turned out to be 0.0271 µM; at NAMPT it was 0.109 µM. With `CCS(=O)(=O)c1cccc(S(=O)(=O)c2ccc(NC(=O)NCc3cccnc3)cc2)c1` [3-(4-{[3-(ethanesulfonyl)benzene]sulfonyl]phenyl)-1-(pyridin-3-ylmethyl)urea], the IC50 is 0.1 to 1 µM in the experiment with A2780 cells [1] (Homo sapiens, A2780, 72 h) and 0.0076 µM on NAMPT.

For the molecule `CC(C)N(Cc1ccccc1)S(=O)(=O)c1ccc(NC(=O)NCc2cccnc2)cc1` [3-{4-[benzyl(propan-2-yl)sulfamoyl]phenyl}-1-(pyridin-3-ylmethyl)urea], the IC50 stood at 0.026 µM with A2780 cells [1] (Homo sapiens, A2780, 72 h) and 0.002 µM on NAMPT. Regarding `O=C(NCc1cccnc1)Nc1ccc(S(=O)(=O)NC2CCCCC2)cc1` [1-[4-(cyclohexylsulfamoyl)phenyl]-3-(pyridin-3-ylmethyl)urea], the IC50 with A2780 cells [1] (Homo sapiens, A2780, 72 h) was 0.204 µM; on NAMPT, 0.001 µM. With `O=C(NCc1cccnc1)Nc1ccc(S(=O)(=O)c2cc(F)cc(C(F)(F)F)c2)cc1` [3-(4-{[3-fluoro-5-(trifluoromethyl)benzene]sulfonyl[phenyl)-1-(pyridin-3-ylmethyl)urea], the half-maximal inhibitory concentration (IC50) with A2780 cells [1] was found to be 0.0576 µM; on NAMPT, 0.0007 µM. For `COc1ccccc1CNS(=O)(=O)c1ccc(NC(=O)NCc2cccnc2)cc1` [3-(4-{[(2-methoxyphenyl)methyl]sulfamoyl}phenyl)-1-(pyridin-3-ylmethyl)urea], the half-maximal inhibitory concentration (IC50) with A2780 cells [1] (Homo sapiens, A2780, 72 h) amounted to 0.097 µM; at NAMPT, 0.008 µM.

Turning to `O=C(NCc1cccnc1)Nc1ccc(S(=O)(=O)N2CCCC[C@@H]2CN2CCOCC2)cc1` [1-{4-[(2R)-2-(morpholin-4-ylmethyl)piperidine-1-sulfonyl]phenyl}-3-(pyridin-3-ylmethyl)urea], the IC50 in the experiment on A2780 cells [1] (Homo sapiens, A2780, 72 h) is 0.081 µM; on NAMPT it was 0.051 µM. The corresponding values for `Cn1ncc2cccc(S(=O)(=O)c3ccc(NC(=O)NCc4cccnc4)cc3)c21` [3-[4-(1-methyl-1H-indazole-7-sulfonyl)phenyl]-1-(pyridin-3-ylmethyl)urea] are 0.1 to 1 µM and 0.0144 µM. The corresponding values for `Cc1cc(C)c(S(=O)(=O)c2ccc(NC(=O)NCc3cccnc3)cc2)c(C)c1` [1-(pyridin-3-ylmethyl)-3-{4-[(2,4,6-trimethylbenzene)sulfonyl]phenyl}urea] are more than 1 µM and 0.011 µM. On to `CN(C)S(=O)(=O)c1cccc(S(=O)(=O)c2ccc(NC(=O)NCc3cccnc3)cc2)c1` [3-(4-{[3-(dimethylsulfamoyl)benzene]sulfonyl]phenyl)-1-(pyridin-3-ylmethyl)urea], for which the half-maximal inhibitory concentration (IC50) in the experiment on A2780 cells [1] (Homo sapiens, A2780, 72 h) is 0.0793 µM; on NAMPT it was 0.0033 µM. In the case of `O=C(NCc1cccnc1)Nc1ccc([S+]([O-])c2ccc(Cl)cc2)cc1` (stereo not shown) [3-{4-[(4-chlorobenzene)sulfmyl]phenyl}-1-(pyridin-3-ylmethyl)urea], the IC50 turned out to be 0.041 µM in the experiment on A2780 cells [1] (Homo sapiens, A2780, 72 h) and 0.008 µM at NAMPT. For `O=C(NCc1cccnc1)Nc1ccc(S(=O)(=O)Nc2ccc(N3CCOCC3)cc2)cc1` [1-(4-{[4-(morpholin-4-yl)phenyl]sulfamoyl}phenyl)-3-(pyridin-3-ylmethyl)urea], the half-inhibitory concentration (IC50) came out at 0.173 µM in the experiment on A2780 cells [1] (Homo sapiens, A2780, 72 h) and 0.005 µM at NAMPT. Turning to `COc1ccc(S(=O)(=O)c2ccc(NC(=O)NCc3cccnc3)cc2)cc1` [3-{4-[(4-methoxybenzene)sulfonyl]phenyl}-1-(pyridin-3-ylmethyl)urea], the IC50 in the experiment on A2780 cells [1] (Homo sapiens, A2780, 72 h) is 0.1 to 1 µM; at NAMPT it was 0.0024 µM. On to `COc1ccc(S(=O)(=O)c2ccc(NC(=O)NCc3cccnc3)cc2)c(OC)c1` [3-{4-[(2,4-dimethoxybenzene)sulfonyl]phenyl}-1-(pyridin-3-ylmethyl)urea], for which the half-maximal inhibitory concentration (IC50) is 0.047 µM with A2780 cells [1] (Homo sapiens, A2780, 72 h) and 0.005 µM on NAMPT.

Take `O=C(NCc1cccnc1)Nc1ccc(S(=O)(=O)n2cccc2)cc1` [1-(pyridin-3-ylmethyl)-3-[4-(1H-pyrrole-1-sulfonyl)phenyl]urea]: the IC50 with A2780 cells [1] (Homo sapiens, A2780, 72 h) amounted to 1.79 µM; at NAMPT it was 0.019 µM.

With `O=C(NCc1cccnc1)Nc1ccc(S(=O)(=O)c2ccc(Cl)c(F)c2)cc1` [3-{4-[(4-chloro-3-fluorobenzene)sulfonyl]phenyl}-1-(pyridin-3-ylmethyl)urea], the IC50 in the experiment with A2780 cells [1] (Homo sapiens, A2780, 72 h) came to 0.221 µM; at NAMPT, 0.003 µM.
